Key:
K562 = assay: Cytotoxicity against human K562 cells assessed as inhibition of cell growth incubated for 48 hrs by CCK-8 assay; format: functional, cell-based; settings: K562, 48 h
A549 [1] = assay: Cytotoxicity against human A549 cells assessed as inhibition of cell growth incubated for 48 hrs by CCK-8 assay; format: functional, cell-based; settings: A549, 48 h
MCF7 = assay: Cytotoxicity against human MCF7 cells assessed as inhibition of cell growth incubated for 48 hrs by CCK-8 assay; format: functional, cell-based; settings: MCF7, 48 h
T-24 [2] = assay: Cytotoxicity against human T24 cells assessed as inhibition of cell growth incubated for 48 hrs by CCK-8 assay; format: functional, cell-based; settings: T-24, 48 h
HepG2 = assay: Cytotoxicity against human HepG2 cells assessed as inhibition of cell growth incubated for 48 hrs by CCK-8 assay; format: functional, cell-based; settings: HepG2, 48 h
MKN-45 [3] = assay: Cytotoxicity against human MNK45 cells assessed as inhibition of cell growth incubated for 48 hrs by CCK-8 assay; format: functional, cell-based; settings: MKN-45, 48 h
MKN-45 [4] = assay: Potency index, ratio of diosgenin IC50 to test compound IC50 for cytotoxicity against human MNK45 cells assessed as inhibition of cell growth incubated for 48 hrs by CCK-8 assay; format: functional
T-24 [5] = assay: Potency index, ratio of diosgenin IC50 to test compound IC50 for cytotoxicity against human T24 cells assessed as inhibition of cell growth incubated for 48 hrs by CCK-8 assay; format: functional
A549 [6] = assay: Potency index, ratio of diosgenin IC50 to test compound IC50 for cytotoxicity against human A549 cells assessed as inhibition of cell growth incubated for 48 hrs by CCK-8 assay; format: functional

With `CC(=O)O[C@H]1CC[C@@]2(C)C(=CC[C@H]3[C@@H]4C[C@@H]5O[C@H](CC[C@@H](C)COC(=O)[C@@H](N)Cc6ccccc6)[C@@H](C)[C@@H]5[C@@]4(C)CC[C@@H]32)C1` the IC50 (K562) was 15.8 µM, the IC50 (A549 [1]) was 27.2 µM and the IC50 (MCF7) was over 30 µM. The IC50 (T-24 [2]) was 8.22 µM, the IC50 (HepG2) was 18.8 µM and the IC50 (MKN-45 [3]) was over 30 µM.
`C[C@@H]1CC[C@@]2(OC1)O[C@H]1C[C@H]3[C@@H]4CC=C5C[C@@H](O)CC[C@]5(C)[C@H]4CC[C@]3(C)[C@H]1[C@@H]2C` [DISOGENIN] was tested, and the IC50 (K562) was 30 µM, the IC50 (A549 [1]) was 32.9 µM and the IC50 (MCF7) was 28.5 µM. For the same compound, the IC50 (T-24 [2]) was 28.9 µM, the IC50 (HepG2) was 48.4 µM and the IC50 (MKN-45 [3]) was 78.3 µM.
`CC(C)[C@H](N)C(=O)O[C@H]1CC[C@@]2(C)C(=CC[C@H]3[C@@H]4C[C@@H]5O[C@]6(CC[C@@H](C)CO6)[C@@H](C)[C@@H]5[C@@]4(C)CC[C@@H]32)C1` showed an IC50 (K562) of 16.5 µM, an IC50 (A549 [1]) of 23 µM and an IC50 (MCF7) of over 30 µM. For the same compound, the IC50 (T-24 [2]) was 11.8 µM, the IC50 (HepG2) was 27.7 µM and the IC50 (MKN-45 [3]) was 13.4 µM.
`CC(=O)O[C@H]1CC[C@@]2(C)C(=CC[C@H]3[C@@H]4C[C@@H]5O[C@H](CC[C@@H](C)COC(=O)[C@H](C)N)[C@@H](C)[C@@H]5[C@@]4(C)CC[C@@H]32)C1` gave an IC50 (K562) of 17.5 µM, an IC50 (A549 [1]) of 27.6 µM and an IC50 (MCF7) of over 30 µM. It also gave an IC50 (T-24 [2]) of 11.4 µM, an IC50 (HepG2) of over 30 µM and an IC50 (MKN-45 [3]) of 10.7 µM.
With `CC(C)C[C@H](N)C(=O)O[C@H]1CC[C@@]2(C)C(=CC[C@H]3[C@@H]4C[C@@H]5O[C@]6(CC[C@@H](C)CO6)[C@@H](C)[C@@H]5[C@@]4(C)CC[C@@H]32)C1` the IC50 (K562) was 10.5 µM, the IC50 (A549 [1]) was over 30 µM and the IC50 (MCF7) was over 30 µM. It also gave an IC50 (T-24 [2]) of 8.83 µM, an IC50 (HepG2) of over 30 µM and an IC50 (MKN-45 [3]) of 10.4 µM.
For `CC(=O)O[C@H]1CC[C@@]2(C)C(=CC[C@H]3[C@@H]4C[C@@H]5O[C@H](CC[C@@H](C)COC(=O)[C@@H](N)CC(C)C)[C@@H](C)[C@@H]5[C@@]4(C)CC[C@@H]32)C1`, the IC50 (K562) was 11.5 µM, the IC50 (A549 [1]) was over 30 µM and the IC50 (MCF7) was 21.2 µM. For the same compound, the IC50 (T-24 [2]) was 5.67 µM, the IC50 (HepG2) was 12.9 µM and the IC50 (MKN-45 [3]) was 12.1 µM.
For `O=c1[nH]cc(F)c(=O)[nH]1` [FLUOROURACIL], the IC50 (K562) was 20.2 µM, the IC50 (MCF7) was 18.6 µM and the IC50 (T-24 [2]) was 12.9 µM. For the same compound, the IC50 (HepG2) was 18.9 µM and the IC50 (MKN-45 [3]) was 21.4 µM.
Work on `C[C@@H]1CC[C@@]2(OC1)O[C@H]1C[C@H]3[C@@H]4CC=C5C[C@@H](OC(=O)[C@@H]6CCCN6)CC[C@]5(C)[C@H]4CC[C@]3(C)[C@H]1[C@@H]2C` yielded an IC50 (K562) of 7.47 µM, an IC50 (A549 [1]) of 20.6 µM and an IC50 (MCF7) of 11.4 µM. It also gave an IC50 (T-24 [2]) of 9.65 µM, an IC50 (HepG2) of 16.4 µM and an IC50 (MKN-45 [3]) of 5.47 µM.
`C[C@@H]1CC[C@@]2(OC1)O[C@H]1C[C@H]3[C@@H]4CC=C5C[C@@H](OC(=O)[C@@H](N)Cc6c[nH]c7ccccc67)CC[C@]5(C)[C@H]4CC[C@]3(C)[C@H]1[C@@H]2C` was tested, and the IC50 (K562) was 8.47 µM, the IC50 (A549 [1]) was 12.9 µM and the IC50 (MCF7) was 9.6 µM. For the same compound, the IC50 (T-24 [2]) was 7.06 µM, the “Ratio IC50” value (MKN-45 [4]) was 15 and the “Ratio IC50” value (T-24 [5]) was 4.1. For the same compound, the IC50 (HepG2) was 17 µM and the IC50 (MKN-45 [3]) was 5.21 µM.
Work on `CC(=O)O[C@H]1CC[C@@]2(C)C(=CC[C@H]3[C@@H]4C[C@@H]5O[C@H](CC[C@@H](C)COC(=O)CN)[C@@H](C)[C@@H]5[C@@]4(C)CC[C@@H]32)C1` yielded an IC50 (K562) of 15.2 µM, an IC50 (A549 [1]) of over 30 µM and an IC50 (MCF7) of over 30 µM. It also gave an IC50 (T-24 [2]) of 10.4 µM, an IC50 (HepG2) of over 30 µM and an IC50 (MKN-45 [3]) of 17.3 µM.
In the case of `C[C@@H]1CC[C@@]2(OC1)O[C@H]1C[C@H]3[C@@H]4CC=C5C[C@@H](OC(=O)CN)CC[C@]5(C)[C@H]4CC[C@]3(C)[C@H]1[C@@H]2C` [GLYCINE DIOSGENYL ESTER], the IC50 (K562) is reported as 7.68 µM, the IC50 (A549 [1]) is reported as 18 µM and the IC50 (MCF7) is reported as 10.3 µM. It also gave an IC50 (T-24 [2]) of 9.98 µM, an IC50 (HepG2) of 14.9 µM and an IC50 (MKN-45 [3]) of 16.2 µM.
In the case of `C[C@@H]1CC[C@@]2(OC1)O[C@H]1C[C@H]3[C@@H]4CC=C5C[C@@H](OC(=O)[C@H](C)N)CC[C@]5(C)[C@H]4CC[C@]3(C)[C@H]1[C@@H]2C`, the IC50 (K562) is reported as 15.5 µM, the IC50 (A549 [1]) is reported as 18.1 µM and the IC50 (MCF7) is reported as over 30 µM. The IC50 (T-24 [2]) was 9.1 µM, the IC50 (HepG2) was over 30 µM and the IC50 (MKN-45 [3]) was 11.5 µM.
`CC(=O)O[C@H]1CC[C@@]2(C)C(=CC[C@H]3[C@@H]4C[C@@H]5O[C@H](CC[C@@H](C)COC(=O)[C@@H]6CCCN6)[C@@H](C)[C@@H]5[C@@]4(C)CC[C@@H]32)C1` was tested, and the IC50 (K562) was 27.7 µM, the IC50 (A549 [1]) was 22.3 µM and the IC50 (MCF7) was over 30 µM. The IC50 (T-24 [2]) was 12.2 µM, the IC50 (HepG2) was 18.5 µM and the IC50 (MKN-45 [3]) was 17.3 µM.
For `C[C@@H]1CC[C@@]2(OC1)O[C@H]1C[C@H]3[C@@H]4CC=C5C[C@@H](OC(=O)[C@@H](N)Cc6ccccc6)CC[C@]5(C)[C@H]4CC[C@]3(C)[C@H]1[C@@H]2C`, the IC50 (K562) was 8.59 µM, the IC50 (A549 [1]) was over 30 µM and the IC50 (MCF7) was 25.4 µM. It also gave an IC50 (T-24 [2]) of 10.6 µM, an IC50 (HepG2) of 26.1 µM and an IC50 (MKN-45 [3]) of 11.4 µM.
`CC(=O)O[C@H]1CC[C@@]2(C)C(=CC[C@H]3[C@@H]4C[C@@H]5O[C@H](CC[C@@H](C)COC(=O)[C@@H](N)C(C)C)[C@@H](C)[C@@H]5[C@@]4(C)CC[C@@H]32)C1` gave an IC50 (K562) of 6.77 µM, an IC50 (A549 [1]) of 4.92 µM and an IC50 (MCF7) of 17.8 µM. For the same compound, the IC50 (T-24 [2]) was 4.94 µM, the “Ratio IC50” value (A549 [6]) was 6.7 and the IC50 (HepG2) was 12.3 µM. The IC50 (MKN-45 [3]) was 7.01 µM.

Reference: ChEMBL document CHEMBL4813993, “Design and synthesis of diosgenin derivatives as apoptosis inducers through mitochondria-related pathways” (Eur J Med Chem, 2021)
